Measured values reported in patent US20050209157A1, “Short bioactive peptides and methods for their use” (priority 2001, published 2005).
≈ marks a conversion by molar mass, not a printed value. No end group written: not given here.

Key:
[1] = test system: Pseudomonas aeruginosa H187; format: cell-based; conditions: Table 15; in µg/mL
[2] = test system: S. typhimurium 14028S; format: cell-based, Salmonella typhimurium; conditions: Table 14
[3] = test system: S. aureus (MRSA); format: cell-based, Staphylococcus aureus; conditions: Table 15, strain SAP0017; in µg/mL
[4] = test system: S. epidermidis C621; format: cell-based, Staphylococcus epidermidis; conditions: Table 15
[5] = test system: P. aeruginosa H374; format: cell-based, Pseudomonas aeruginosa; conditions: Table 14; in µg/mL
[6] = test system: E. coli UB1005; format: cell-based, Escherichia coli; conditions: Table 14
[7] = test system: Candida albicans 105; format: cell-based; conditions: Table 15; in µg/mL
[8] = test system: human red blood cells (RBC); experiment: in vitro; format: cell-based; conditions: for Peptide toxicity RBC LD/50: human red blood cells
[9] = in vitro; conditions: human, WI38 normal lung fibroblast cells
[10] = test system: human leukocyte (WBC) cells; experiment: Stimulation and proliferation of leukocytes, Alamar Blue; format: cell-based; conditions: for Peptide treated cell activity Percent stimulation relative to control: 48 hours
Protocol: In vitro viability of human leukocyte cells in the presence of different peptides at different concentrations was determined by an Alamar Blue protocol. Alamar Blue (Promega, Madison, Wis.) is an indicator dye, formulated to measure quantitatively the proliferation and cytotoxicity of the cells. The dye consists of an oxidation-reduction (redox) indicator that yields a calorimetric change and a fluorescent signal in response to cellular metabolic activity.
Assay protocol: Blood from a human was drawn and centrifuged at 1500 rpm for 15 minutes at room temperature. The buffy coat cells at the plasma-red blood cell interface were aspirated. Buffy coat cells (mainly lymphocyte cells) were then transferred into 15 ml centrifuge tubes containing 5 ml of RPMI-1640 medium+10% Fetal Bovine Serum (Gibco, Grand Island, N.Y.). Additional medium was added to the tubes to bring the volume up to 10 ml. The buffy coat suspension was then carefully layered on 5 ml of Histopaque (Sigma Chemical Co., St. Louis, Mo.) and centrifuged at 1500 rpm for 30 minutes at room temperature. The interface which is mostly PBMCs (peripheral mononuclear cells) was aspirated and transferred to a 15 ml conical centrifuge tube and, resuspended in 2 ml cold RPMI-1640 and brought up to 15 ml with cold RPMI-1640 medium. Cells were centrifuged at 1500 rpm for 10 minutes. The supernatant was then aspirated and discarded. The cell pellet was re-suspended in 1 ml of cold RPMI 1640 and brought up to 15 ml with RPMI medium. This step was repeated twice, except that in the last step, the cells were resuspended with 1 ml of cold RPMI-1640 medium and cell counts were performed with a hemocytometer according to the Sigma cell culture catalogue.
Pokewood mitogen was used as a control along with positive and negative controls. Negative control cells were killed with 70% methanol. Positive (+) control cells were incubated in RPMI medium (untreated). […] of AlamarBlue was added to the cells, and readings were taken after 24 hours, 48 hours, 72 hours, and 96 hours using a fluorimeter (excitation 544/transmission 590 nm).
Calculations were performed using the following formula. The peptide treated sample and positive control were adjusted for negative control. [formula]
Using the protocol described immediately above, about 100-150 peptides were screened for their stimulatory and/or inhibitory actions upon the growth of human leukocyte (“WBC”) cells as compared to the growth of untreated positive control cells.
The Alamar Blue stain used in the protocol permeates both cell and nuclear membranes, and is metabolized in the mitochondria to cause the change in color. The resulting fluorometric response is therefore a result of total mitochondrial activity caused by cell stimulation and/or mitosis (cell proliferation).

[11] = test system: yeast (Saccharomyces cerevisiae); experiment: Antimicrobial assay I, yeast assay in RPMI 1640; format: cell-based; conditions: RPMI 1640 media
[12] = test system: WI38; conditions: MTT, 24 hours with peptide
[13] = test system: MCF7; experiment: Anti-cancer assay, MTT, LD50; format: cell-based; conditions: MCF7 breast adenocarcinoma line, MTT, 24 hours with peptide
Text: (§1) Numbers are LD50 values (μg/mL).

[14] = test system: PC3; experiment: Anti-cancer assay, MTT, LD50; format: cell-based; conditions: 24 hours with peptide, prostate adenocarcinoma
Text: as §1

[15] = test system: SW480; experiment: Anti-cancer assay, MTT, LD50; format: cell-based; conditions: SW480 colon adenocarcinoma line, 24 hours with peptide
Text: as §1

[16] = test system: BMKC; experiment: Anti-cancer assay, MTT, LD50; format: cell-based; conditions: BMKC cloned melanoma line, 24 hours with peptide
Text: as §1

[17] = test system: H1299; experiment: Anti-cancer assay, MTT, LD50; format: cell-based; conditions: 24 hours with peptide, lung large cell carcinoma
Text: as §1

[18] = test system: HeLaS3; experiment: Anti-cancer assay, MTT, LD50; format: cell-based; conditions: 24 hours with peptide, cervical carcinoma
Text: as §1

[19] = test system: Pseudomonas aeruginosa ATCC 9027; experiment: Antimicrobial assay I, MIC by OD measurement; format: cell-based; conditions: 37° C. for 24 hours, absorbance 620 nm
[20] = test system: Staphylococcus aureus ATCC 6538; experiment: Antimicrobial assay I, MIC by OD measurement; format: cell-based; conditions: 37° C. for 24 hours, absorbance 620 nm
[21] = Peptide toxicity WI-38 LD/50, human fibroblast cells

Compound	Peptide toxicity RBC LD/50 [8]	CC50 at 24 h [9, 21]	Peptide treated cell activity Percent stimulation relative to control ([10]; 0.1 ug/ml)	Peptide treated cell activity Percent stimulation relative to control ([10]; 1 ug/ml)	Peptide treated cell activity Percent stimulation relative to control ([10]; 10 ug/ml)	Peptide treated cell activity Percent stimulation relative to control ([10]; 100 ug/ml)	Peptide treated cell activity Percent stimulation relative to control ([10]; 500 ug/ml)	other results
FAKLLAKLAKKGL-NH2 [P152 (114)]								MIC P. aeruginosa H187 [1]: >128; MIC S. typhimurium 14028S [2]: > 128 µg/mL; MIC S. aureus SAP0017 [3]: >128; MIC S. epidermidis C621 [4]: 32 µg/mL; MIC P. aeruginosa H374 [5]: >128; MIC E. coli UB1005 [6]: 32 µg/mL; MIC C. albicans 105 [7]: 128
FKRLAKIKVLRLAKIKR-NH2 [P147 (109)]								MIC P. aeruginosa H187 [1]: >128; MIC S. typhimurium 14028S [2]: 128 µg/mL; MIC S. aureus SAP0017 [3]: >128; MIC S. epidermidis C621 [4]: 64 µg/mL; MIC P. aeruginosa H374 [5]: 128; MIC E. coli UB1005 [6]: 64 µg/mL; MIC C. albicans 105 [7]: 64
CC(C)C[C@H](NC(=O)[C@H](C)NC(=O)[C@H](CC(C)C)NC(=O)[C@H](CCCCN)NC(=O)[C@H](C)NC(=O)[C@H](CC(C)C)NC(=O)[C@H](CCCCN)NC(=O)[C@H](CCCCN)NC(=O)[C@H](C)NC(=O)[C@H](CC(C)C)NC(=O)[C@H](CCCCN)NC(=O)[C@H](C)NC(=O)[C@H](CC(C)C)NC(=O)[C@H](CCCCN)NC(=O)[C@H](CCCCN)NC(=O)[C@H](C)NC(=O)[C@@H](N)Cc1ccccc1)C(N)=O [compound 17]	200	8 µg/mL (≈ 4.31 µM)	82%	76%	61%	18%	16%	
FAKLLAKALKKAL-NH2 [compound 66]	500	210 µg/mL	100%	102%	97%	37%	17%	
FALALKALKKLAKKLKKLAKKAL-NH2 [compound 10]	60	24 µg/mL	117%	104%	99%	27%	27%	
FALALKALKKLKKALKKAL-NH2 [compound 12]	125	37 µg/mL	108%	110%	99%	30%	23%	
FAKKFAKKFKKFAKKFAKFAFAF-NH2 [compound 147]	10		100%	94%	83%	22%	20%	CC50 at 24 h [9]: 66 µg/mL
FALKALKKLKKALKKAL-NH2 [compound 115]	780	130 µg/mL	93%	92%	37%	72%	29%	
FAKKLAKLAKKLLAL-NH2 [compound 20]	350	12 µg/mL	79%	82%	78%	37%	36%	
FAKLLAKLAKAKA-NH2 [compound 61]	>1000	> 1000 µg/mL	110%	115%	116%	124%	114%	
FALALKAKKL-NH2 [P182]								LD50 ([8]; hemolytic assay, concentration at 50% hemolysis, 1 hour at 37° C.): > (> indicates greater than 1000); yeast (MIC or MFC) [11]: > (> indicates greater than 200 μg/mL); WI38 LD50 ([12]; normal fibroblast line): > (> indicates greater than 1000); LD50 WI38 ([12]; WI38 normal lung fibroblast line): > (> indicates greater than 1000); stimulatory and/or inhibitory action on growth of human leukocyte (WBC) cells ([10]; compared to untreated positive control cells, Alamar Blue): stimulatory (and/or proliferative) at all concentrations through 500 μg/ml; LD50 MCF7 [13]: > (> indicates greater than 1000); PC3 LD50 [14]: > (> indicates greater than 1000); LD50 SW480 [15]: > (> indicates greater than 1000); LD50 BMKC [16]: > (> indicates greater than 1000); H1299 LD50 [17]: > (> indicates greater than 1000); HeLaS3 LD50 [18]: > (> indicates greater than 1000); paerug9027 (MIC) [19]: > (> indicates greater than 200 μg/mL); staph6538 (MIC) [20]: > (> indicates greater than 200 μg/mL)
MPKEKVFLKIEKMGRNIRN-NH2 [compound 71]	>1000	> 1000 µg/mL	101%	100%	108%	109%	110%	
